Experimental data from patent publication US11299478B2, “2-cyanopyrimidin-4-yl carbamate or urea derivative or salt thereof, and pharmaceutical composition including same” (HANLIM PHARMACEUTICAL CO., LTD., priority 2018, dated 2022).

Experiments:
Format in all cases: biochemical
cathepsin K = target: T1, cathepsin K (Homo sapiens, UniProt P43235); experiment: Inhibitory activity assay against cathepsin K (enzyme assay); conditions: Z-Phe-Arg-AMC 10 μM, enzyme 1 nM, pH 5.5, 30 minutes
T1 sequence (P43235 115-329): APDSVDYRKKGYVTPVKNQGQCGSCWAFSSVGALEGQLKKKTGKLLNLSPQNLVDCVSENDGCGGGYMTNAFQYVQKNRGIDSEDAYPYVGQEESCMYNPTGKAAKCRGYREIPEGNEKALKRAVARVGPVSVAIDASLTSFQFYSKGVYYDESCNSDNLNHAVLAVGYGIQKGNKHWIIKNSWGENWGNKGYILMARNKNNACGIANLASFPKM
Outline: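 Fluorogenic assay with 1 nM cathepsin K and 10 μM Z-Phe-Arg-AMC in pH 5.5 buffer (50 mM MES, 2 mM DTT, 2.5 mM EDTA, 0.01% Triton X-100, 10% DMSO). Ten compound concentrations, 10.0 to 0.000508 μM; 30 min reaction, ex 355/em 460 nm; IC50 by 4-parameter logistic fit.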

cathepsin S = cathepsin S (Homo sapiens, UniProt P25774); experiment: Inhibitory activity assay against cathepsin S (enzyme assay); conditions: Z-Phe-Arg-AMC 70 μM, enzyme 3 nM, pH 6.5, 45 minutes
Chain of cathepsin S (P25774 115-331, species assumed): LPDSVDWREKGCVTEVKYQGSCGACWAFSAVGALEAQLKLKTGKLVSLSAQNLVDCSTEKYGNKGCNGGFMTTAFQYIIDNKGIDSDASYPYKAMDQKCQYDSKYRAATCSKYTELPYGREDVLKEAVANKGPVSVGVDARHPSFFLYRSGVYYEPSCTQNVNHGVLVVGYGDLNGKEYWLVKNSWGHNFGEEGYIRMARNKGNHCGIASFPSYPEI
Outline: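 Cathepsin S (3 nM final) with Z-Phe-Arg-AMC substrate (70 μM final) in pH 6.5 buffer of 50 mM MES, 2.5 mM DTT, 1.0 mM EDTA, 0.001% BSA, 10% DMSO; compound 10.0 μM down to 0.000508 μM, 10 points. Fluorescence (ex 340/em 460 nm) after 45 min; IC50 by 4-parameter logistic fit.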

cathepsin B = cathepsin B (Homo sapiens, UniProt P07858); experiment: Inhibitory activity assay against cathepsin B (enzyme assay); conditions: Z-Arg-Arg-AMC 40 μM, enzyme 1 nM, pH 6.0, 90 minutes
Outline: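 1 nM enzyme with 40 μM Z-Arg-Arg-AMC and compound (10.0 μM down to 0.000508 μM, 10 points) in pH 6.0 buffer of 50 mM MES, 5 mM DTT, 2.5 mM EDTA, 0.005% Polysorbate 20, 10% DMSO. Fluorescence (340/460 nm) read after 90 min; IC50 by 4-parameter logistic fit.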

cathepsin L = cathepsin L (Homo sapiens, UniProt P07711); experiment: Inhibitory activity assay against cathepsin L (enzyme assay); conditions: Z-Phe-Arg-AMC 2 μM, enzyme 3 nM, pH 5.5, 30 minutes
Chain of cathepsin L (P07711 114-333, species assumed): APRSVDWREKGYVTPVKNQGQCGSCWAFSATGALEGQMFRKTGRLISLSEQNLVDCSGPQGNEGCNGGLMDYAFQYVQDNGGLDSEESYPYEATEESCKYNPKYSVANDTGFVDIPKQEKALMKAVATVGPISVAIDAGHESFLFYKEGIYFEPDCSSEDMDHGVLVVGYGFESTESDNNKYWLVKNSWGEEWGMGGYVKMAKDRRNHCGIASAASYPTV
Outline: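 Enzyme at 3 nM with 2 μM Z-Phe-Arg-AMC in 50 mM MES pH 5.5, 2.5 mM DTT, 2.5 mM EDTA, 0.005% Polysorbate 20, 10% DMSO; 30 min reaction, AMC fluorescence 340/460 nm. Ten-point series 10.0 μM to 0.000508 μM; IC50 by 4-parameter logistic fit.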

Structure (SMILES) | IC50 (cathepsin K) [nM] | IC50 (cathepsin S) [nM] | IC50 (cathepsin B) [nM] | IC50 (cathepsin L) [nM]
N#Cc1nccc(C2(NC(=O)Nc3ccccc3O)CCCCC2)n1 [Example 102, 1-(1-(2-cyanopyrimidin-4-yl)cyclohexyl)-3-(2-hydroxyphenyl)urea] | 63.2 | 6240 | > 10000 | 3440
N#Cc1nccc(C2(NC(=O)Nc3ccc(-c4ccc(OCCN)cc4)cc3)CCCCC2)n1 [Example 190, 1-(4′-(2-aminoethoxy)-[1,1′-biphenyl]-4-yl)-3-(1-(2-cyanopyrimidin-4-yl)cyclohexyl)urea] | 0.3 | > 10000 | 7870 | > 10000
N#Cc1nccc(C2(NC(=O)Nc3ccc(-c4ccc(C(=O)NCCc5c[nH]cn5)cc4)c(C(F)(F)F)c3)CCCCC2)n1 [Example 189, N-(2-(1H-imidazol-4-yl)ethyl)-4′-(3-(1-(2-cyanopyrimidin-4-yl)cyclohexyl)ureido)-2′-(trifluoromethyl)-[1,1′-biphenyl]-4-carboxamide] | 0.6 | > 10000 | 5400 | 1190
N#Cc1nccc(C2(NC(=O)Nc3ccc(-c4ccc(F)nc4)cc3)CCCCC2)n1 [Example 125, 1-(1-(2-cyanopyrimidin-4-yl)cyclohexyl)-3-(4-(6-fluoropyridin-3-yl)phenyl)urea] | 15.2 | 5420 | > 10000 | > 10000
Cc1ccccc1COC(=O)NC1(c2ccnc(C#N)n2)CCCCC1 [Example 17, 2-methylbenzyl (1-(2-cyanopyrimidin-4-yl)cyclohexyl)carbamate] | 58.4 | > 10000 | > 10000 | 1420
N#Cc1nccc(C2(NC(=O)Nc3cc(C(F)(F)F)ccc3F)CCCCC2)n1 [Example 97, 1-(1-(2-cyanopyrimidin-4-yl)cyclohexyl)-3-(2-fluoro-5-(trifluoromethyl)phenyl)urea] | 4.9 | > 10000 | > 10000 | > 10000
N#Cc1nccc(C2(NC(=O)Nc3ccc(-c4ccccc4C(F)(F)F)cc3)CCCCC2)n1 [Example 172, 1-(1-(2-cyanopyrimidin-4-yl)cyclohexyl)-3-(2′-(trifluoromethyl)-[1,1′-biphenyl]-4-yl)urea] | 108 | 8020 | > 10000 | > 10000
N#Cc1nccc(C2(NC(=O)OCc3ccc(C(F)(F)F)cc3)CCCCC2)n1 [Example 24, 4-(trifluoromethyl)benzyl (1-(2-cyanopyrimidin-4-yl)cyclohexyl)carbamate] | 37.9 | > 10000 | > 10000 | > 10000
Cc1ccc(NC(=O)NC2(c3ccnc(C#N)n3)CCCC2)cc1C [Example 62, 1-(1-(2-cyanopyrimidin-4-yl)cyclopentyl)-3-(3,4-dimethylphenyl)urea] | 83.7 | > 10000 | > 10000 | > 10000
N#Cc1nccc(C2(NC(=O)Nc3ccc(Br)cc3)CCCCC2)n1 [Example 110, 1-(4-bromophenyl)-3-(1-(2-cyanopyrimidin-4-yl)cyclohexyl)urea] | 22.9 | > 10000 | > 10000 | > 10000
N#Cc1nccc(C2(NC(=O)OCc3ccc(Br)cc3)CCCCC2)n1 [Example 11, 4-bromobenzyl (1-(2-cyanopyrimidin-4-yl)cyclohexyl)carbamate] | 18.8 | > 10000 | > 10000 | > 10000
N#Cc1nccc(C2(NC(=O)OCc3ccc(-c4ccc(F)nc4)cc3)CCCC2)n1 [Example 33, 4-(6-fluoropyridin-3-yl)benzyl (1-(2-cyanopyrimidin-4-yl)cyclopentyl)carbamate] | 1620 | > 10000 | > 10000 | > 10000
N#Cc1nccc(C2(NC(=O)Nc3cccc(-c4ccccc4)c3)CCCCC2)n1 [Example 111, 1-([1,1′-biphenyl]-3-yl)-3-(1-(2-cyanopyrimidin-4-yl)cyclohexyl)urea] | 71.5 | > 10000 | > 10000 | > 10000
C#Cc1ccc(-c2ccc(NC(=O)NC3(c4ccnc(C#N)n4)CCCCC3)cc2)cc1 [Example 122, 1-(1-(2-cyanopyrimidin-4-yl)cyclohexyl)-3-(4′-ethynyl-[1,1′-biphenyl]-4-yl)urea] | 16.9 | > 10000 | > 10000 | > 10000
N#Cc1nccc(C2(NC(=O)Nc3ccc(I)c(F)c3)CCCCC2)n1 [Example 137, 1-(1-(2-cyanopyrimidin-4-yl)cyclohexyl)-3-(3-fluoro-4-iodophenyl)urea] | 38.2 | 6220 | > 10000 | > 10000
N#Cc1nccc(C2(NC(=O)Nc3ccc(C(F)(F)F)cc3)CCCCC2)n1 [Example 90, 1-(1-(2-cyanopyrimidin-4-yl)cyclohexyl)-3-(4-(trifluoromethyl)phenyl)urea] | 68.2 | > 10000 | > 10000 | > 10000
N#Cc1nccc(C2(NC(=O)Nc3ccc(F)c(C(F)(F)F)c3)CCCCC2)n1 [Example 96, 1-(1-(2-cyanopyrimidin-4-yl)cyclohexyl)-3-(4-fluoro-3-(trifluoromethyl)phenyl)urea] | 10.2 | > 10000 | > 10000 | 6500
Cc1cccc(NC(=O)NC2(c3ccnc(C#N)n3)CCCC2)c1 [Example 38, 1-(1-(2-cyanopyrimidin-4-yl)cyclopentyl)-3-(meta-tolyl)urea] | 69.6 | > 10000 | > 10000 | 8060
CS(=O)(=O)Nc1ccc(-c2ccc(NC(=O)NC3(c4ccnc(C#N)n4)CCCCC3)cc2C(F)(F)F)cc1 [Example 180, N-(4′-(3-(1-(2-cyanopyrimidin-4-yl)cyclohexyl)ureido)-2′-(trifluoromethyl)-[1,1′-biphenyl]-4-yl)methanesulfonamide] | 10.9 | > 10000 | > 10000 | > 10000
N#Cc1nccc(C2(NC(=O)Nc3ccc(-c4ccc(S(=O)(=O)C(F)(F)F)cc4)cc3)CCCCC2)n1 [Example 169, 1-(1-(2-cyanopyrimidin-4-yl)cyclohexyl)-3-(4′-((trifluoromethyl)sulfonyl)-[1,1′-biphenyl]-4-yl)urea] | 74 | 3600 | > 10000 | > 10000
N#Cc1nccc(C2(NC(=O)Nc3cccc(C(F)(F)F)c3)CCCC2)n1 [Example 60, 1-(1-(2-cyanopyrimidin-4-yl)cyclopentyl)-3-(3-(trifluoromethyl)phenyl)urea] | 21.6 | > 10000 | 8780 | > 10000
Cc1cccc(COC(=O)NC2(c3ccnc(C#N)n3)CCCCC2)c1 [Example 13, 3-methylbenzyl (1-(2-cyanopyrimidin-4-yl)cyclohexyl)carbamate] | 241 | > 10000 | > 10000 | 5080
Cc1ccc(C)c(NC(=O)NC2(c3ccnc(C#N)n3)CCC(C)(C)CC2)c1 [Example 84, 1-(1-(2-cyanopyrimidin-4-yl)-4,4-dimethylcyclohexyl)-3-(2,5-dimethylphenyl)urea] | 44.3 | 1680 | > 10000 | 3410
N#Cc1nccc(C2(NC(=O)OCc3cccc(F)c3)CCCC2)n1 [Example 7, 3-fluorobenzyl (1-(2-cyanopyrimidin-4-yl)cyclopentyl)carbamate] | 56.3 | > 10000 | > 10000 | 3550
N#Cc1nccc(C2(NC(=O)OCc3ccccc3F)CCCCC2)n1 [Example 18, 2-fluorobenzyl (1-(2-cyanopyrimidin-4-yl)cyclohexyl)carbamate] | 60.8 | 8320 | > 10000 | 1740
N#Cc1nccc(C2(NC(=O)Nc3cccc(Br)c3)CCCCC2)n1 [Example 109, 1-(3-bromophenyl)-3-(1-(2-cyanopyrimidin-4-yl)cyclohexyl)urea] | 11 | 7620 | > 10000 | 1920
